Consider 60 molecules from patent US12581252B2, “Substituted pyrrolo[3,4-b]pyridines as PI3K-α inhibitors” (Relay Therapeutics, Inc., priority 2020, dated 2026).

SMILES strings stand for the structures. pIC50: −log10 of the molar value. Some results are limits rather than exact numbers.

The target of the experiment is H1047R PIK3CA enzyme (Homo sapiens, UniProt P42336, H1047R). Kind of experiment: ADP-Glo Biochemical PIK3CA Kinase Assay.
Sequence of H1047R PIK3CA enzyme (P42336 whole entry H1047R): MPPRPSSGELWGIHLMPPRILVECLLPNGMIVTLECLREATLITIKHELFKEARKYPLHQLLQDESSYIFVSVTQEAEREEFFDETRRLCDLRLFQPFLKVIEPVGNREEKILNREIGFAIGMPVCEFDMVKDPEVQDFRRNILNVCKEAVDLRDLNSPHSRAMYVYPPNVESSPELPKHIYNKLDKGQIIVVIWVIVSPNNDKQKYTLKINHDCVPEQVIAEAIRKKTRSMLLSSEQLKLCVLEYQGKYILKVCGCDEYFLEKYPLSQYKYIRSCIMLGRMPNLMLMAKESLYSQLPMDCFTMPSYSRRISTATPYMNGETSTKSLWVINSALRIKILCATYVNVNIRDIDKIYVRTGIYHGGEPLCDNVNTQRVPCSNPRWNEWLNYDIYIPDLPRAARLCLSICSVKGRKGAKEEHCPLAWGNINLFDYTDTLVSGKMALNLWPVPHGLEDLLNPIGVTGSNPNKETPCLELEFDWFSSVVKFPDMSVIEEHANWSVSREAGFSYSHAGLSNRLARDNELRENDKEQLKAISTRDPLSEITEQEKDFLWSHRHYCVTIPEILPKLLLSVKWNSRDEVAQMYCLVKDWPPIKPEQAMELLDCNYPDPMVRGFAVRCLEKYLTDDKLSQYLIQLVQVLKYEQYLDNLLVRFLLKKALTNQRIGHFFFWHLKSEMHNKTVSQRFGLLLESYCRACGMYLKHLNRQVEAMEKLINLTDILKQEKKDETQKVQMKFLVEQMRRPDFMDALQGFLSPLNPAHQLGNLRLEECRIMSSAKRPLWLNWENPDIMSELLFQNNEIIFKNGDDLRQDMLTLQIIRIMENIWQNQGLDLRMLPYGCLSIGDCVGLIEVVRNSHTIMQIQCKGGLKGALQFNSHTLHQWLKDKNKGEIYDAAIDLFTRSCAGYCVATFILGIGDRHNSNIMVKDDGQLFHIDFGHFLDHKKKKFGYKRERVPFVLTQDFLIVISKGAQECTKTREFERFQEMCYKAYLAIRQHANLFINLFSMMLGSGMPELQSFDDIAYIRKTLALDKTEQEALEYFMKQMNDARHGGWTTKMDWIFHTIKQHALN
Sequence of H1047R PIK3CA enzyme (P27986 whole entry partner): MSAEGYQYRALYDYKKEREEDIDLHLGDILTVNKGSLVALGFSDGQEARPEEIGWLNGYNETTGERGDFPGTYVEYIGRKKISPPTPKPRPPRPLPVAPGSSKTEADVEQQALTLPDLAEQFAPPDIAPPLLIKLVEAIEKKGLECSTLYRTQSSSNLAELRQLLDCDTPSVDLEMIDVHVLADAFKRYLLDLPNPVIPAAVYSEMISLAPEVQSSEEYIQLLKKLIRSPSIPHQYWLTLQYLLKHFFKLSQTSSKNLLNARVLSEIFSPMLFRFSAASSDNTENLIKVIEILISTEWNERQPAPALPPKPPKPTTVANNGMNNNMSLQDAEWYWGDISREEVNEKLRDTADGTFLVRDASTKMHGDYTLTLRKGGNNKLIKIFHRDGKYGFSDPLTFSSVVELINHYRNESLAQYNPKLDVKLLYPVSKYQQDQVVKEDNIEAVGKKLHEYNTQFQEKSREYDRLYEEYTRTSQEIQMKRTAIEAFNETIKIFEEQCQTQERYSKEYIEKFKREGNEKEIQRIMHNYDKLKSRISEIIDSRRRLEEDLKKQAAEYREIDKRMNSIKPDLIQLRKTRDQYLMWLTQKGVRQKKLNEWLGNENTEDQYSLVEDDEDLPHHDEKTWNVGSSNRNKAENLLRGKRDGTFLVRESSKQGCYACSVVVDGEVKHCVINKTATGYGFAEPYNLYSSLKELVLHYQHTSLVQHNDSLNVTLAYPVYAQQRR
The molecule `O=C(Nc1cc(-n2cncc2F)cc2c1C(c1cc(F)ccc1Cl)NC2=O)c1cc(F)cc(C(F)(F)F)c1` (stereo not drawn) [Compound I-1128] had a pIC50 of at least 7.00.
`N#CC1CC(Oc2cc(NC(=O)c3cc(F)cc(C(F)(F)F)c3)c3c(c2)C(=O)NC3c2cc(F)ccc2Cl)C1` (stereo not drawn) [Compound I-1129] had a pIC50 of at least 7.00.
`N#Cc1cc(Oc2cc(NC(=O)c3cc(F)cc(C(F)(F)F)c3)c3c(c2)C(=O)NC3c2cc(F)ccc2Cl)ccn1` (stereo not drawn) [Compound I-1130]: the pIC50 was at least 7.00.
Then `O=C(Nc1cc(OC2COC2)cc2c1C(c1cc(F)ccc1Cl)NC2=O)c1cc(F)cc(C(F)(F)F)c1` (stereo not drawn) [Compound I-1131], with at least 7.00.
`O=C(Nc1cc(OC2CC(O)C2)cc2c1C(c1cc(F)ccc1Cl)NC2=O)c1cc(F)cc(C(F)(F)F)c1` (stereo not drawn) [Compound I-1132] had a pIC50 of 6.30 to 7.00.
Regarding `O=C1NC(c2cc(F)ccc2Cl)c2c(NC(=O)C34CC5CC(CC(F)(C5)C3)C4)cccc21` (stereo not drawn) [Compound I-1133], the pIC50 was 6.00 to 6.30.
Then `O=C(Nc1cc(C(O)COCCO)cc2c1C(c1cc(F)ccc1Cl)NC2=O)c1cc(F)cc(C(F)(F)F)c1` (stereo not drawn) [Compound I-1134], with 6.30 to 7.00; and `O=C(Nc1cc(OC2CCOCC2)cc2c1C(c1cc(F)ccc1Cl)NC2=O)c1cc(F)cc(C(F)(F)F)c1` (stereo not drawn) [Compound I-1135], with at least 7.00; and `Cn1nccc1-c1cc(NC(=O)c2cc(F)cc(C(F)(F)F)c2)c2c(c1)C(=O)N[C@H]2c1cc(F)ccc1Cl` [Compound I-1136], with at least 7.00.
In turn, `Cn1nccc1-c1cc(NC(=O)c2cc(F)cc(C(F)(F)F)c2)c2c(c1)C(=O)N[C@@H]2c1cc(F)ccc1Cl` [Compound I-1137] gave a pIC50 of 5.00 to 6.00.
The value for `CNC1(c2cc(F)ccc2Cl)NC(=O)c2cc(C[S+](C)[O-])cc(NC(=O)c3cc(F)cc(C(F)(F)F)c3)c21` (stereo not drawn) [Compound I-1138] was 5.00 to 6.00; that for `CC(C)(C)C(=O)Nc1cc(Br)cc2c1C(c1cc(F)ccc1Cl)NC2=O` (stereo not drawn) [Compound I-1139] was 5.00 to 6.00; that for `N#Cc1cnn(-c2cc(NC(=O)c3cc(F)cc(C(F)(F)F)c3)c3c(c2)C(=O)NC3c2cc(F)ccc2Cl)c1` (stereo not drawn) [Compound I-1140] was at least 7.00.
`O=C(Nc1cc(C2(O)COCC2O)cc2c1C(c1cc(F)ccc1Cl)NC2=O)c1cc(F)cc(C(F)(F)F)c1` (stereo not drawn) [Compound I-1141] showed a pIC50 of 6.30 to 7.00.
The value for `O=C(Nc1cc(C2CCCOC2)cc2c1C(c1cc(F)ccc1Cl)NC2=O)c1cc(F)cc(C(F)(F)F)c1` (stereo not drawn) [Compound I-1142] was at least 7.00; that for `COc1ccnc(Oc2cc(NC(=O)c3cc(F)cc(C(F)(F)F)c3)c3c(c2)C(=O)NC3c2cc(F)ccc2Cl)n1` (stereo not drawn) [Compound I-1143] was 6.30 to 7.00.
Then `Cn1nccc1Nc1cc(NC(=O)c2cc(F)cc(C(F)(F)F)c2)c2c(c1)C(=O)N[C@H]2c1cc(F)ccc1Cl` [Compound I-1144], with at least 7.00.
The value for `Cn1nccc1Nc1cc(NC(=O)c2cc(F)cc(C(F)(F)F)c2)c2c(c1)C(=O)N[C@@H]2c1cc(F)ccc1Cl` [Compound I-1145] was 5.00 to 6.00.
The molecule `COc1ccc(Oc2cc(NC(=O)c3cc(F)cc(C(F)(F)F)c3)c3c(c2)C(=O)NC3c2cc(F)ccc2Cl)nn1` (stereo not drawn) [Compound I-1147] gave a pIC50 of at least 7.00.
The value for `COc1nccc(Oc2cc(NC(=O)c3cc(F)cc(C(F)(F)F)c3)c3c(c2)C(=O)NC3c2cc(F)ccc2Cl)n1` (stereo not drawn) [Compound I-1148] was at least 7.00; that for `O=C(Nc1cc(OC2CS(=O)(=O)C2)cc2c1C(c1cc(F)ccc1Cl)NC2=O)c1cc(F)cc(C(F)(F)F)c1` (stereo not drawn) [Compound I-1149] was 5.00 to 6.00.
The value for `C[S+]([O-])c1ccccc1-c1cc(NC(=O)c2cc(F)cc(C(F)(F)F)c2)c2c(c1)C(=O)NC2c1cc(F)ccc1Cl` (stereo not drawn) [Compound I-1150] was at least 7.00.
On to `COc1ncc(-c2cc(NC(=O)c3cc(F)cc(C(F)(F)F)c3)c3c(c2)C(=O)NC3c2cc(F)ccc2Cl)c(N)n1` (stereo not drawn) [Compound I-1151], for which the pIC50 is 6.30 to 7.00.
The value for `Cc1ncccc1-c1cc(NC(=O)c2cc(F)cc(C(F)(F)F)c2)c2c(c1)C(=O)NC2c1cc(F)ccc1Cl` (stereo not drawn) [Compound I-1152] was at least 7.00; that for `Nc1ncc(C#Cc2cc(NC(=O)c3cc(F)cc(C(F)(F)F)c3)c3c(c2)C(=O)NC3c2cc(F)ccc2Cl)cn1` (stereo not drawn) [Compound I-1153] was at least 7.00; that for `O=C(Nc1cc(C#CC2(O)COC2)cc2c1C(c1cc(F)ccc1Cl)NC2=O)c1cc(F)cc(C(F)(F)F)c1` (stereo not drawn) [Compound I-1154] was at least 7.00.
The value for `Cn1cc(C#Cc2cc(NC(=O)c3cc(F)cc(C(F)(F)F)c3)c3c(c2)C(=O)NC3c2cc(F)ccc2Cl)cn1` (stereo not drawn) [Compound I-1155] was at least 7.00; that for `N#CC1CC(c2cc(NC(=O)c3cc(F)cc(C(F)(F)F)c3)c3c(c2)C(=O)NC3c2cc(F)ccc2Cl)C1` (stereo not drawn) [Compound I-1175] was at least 7.00.
`O=C(Nc1cc(C(F)(F)F)ccc1Cl)Nc1cc(Br)cc2c1C(c1cc(F)ccc1Cl)NC2=O` (stereo not drawn) [Compound I-1176] gave a negative-log IC50 (pIC50) of 6.30 to 7.00.
The value for `O=C1Cc2cc(NC(=O)c3cc(F)cc(C(F)(F)F)c3)ccc2C(c2ccccc2Cl)N1` (stereo not drawn) [Compound I-1177] was 5.00 to 6.00; that for `O=C1Cc2cccc(NC(=O)c3cc(F)cc(C(F)(F)F)c3)c2C(c2ccccc2Cl)N1` (stereo not drawn) [Compound I-1178] was 5.00 to 6.00; that for `O=C1NC(c2cc(F)ccc2Cl)c2c(NC(=O)C34CC5CC(CC(Cl)(C5)C3)C4)cc(Br)cc21` (stereo not drawn) [Compound I-1179] was at least 7.00.
Then `O=C1NC(c2cc(F)ccc2Cl)c2c(NC(=O)C34CC5CC(F)(CC(F)(C5)C3)C4)cccc21` (stereo not drawn) [Compound I-1180], with 6.30 to 7.00; and `O=C(Nc1cc(NCC2(O)CC2)cc2c1C(c1cc(F)ccc1Cl)NC2=O)c1cc(F)cc(C(F)(F)F)c1` (stereo not drawn) [Compound I-1181], with at least 7.00.
The value for `O=C1NC(c2cc(F)ccc2Cl)c2c(NC(=O)C34C5C6C7C5C3C7C64)cc(Br)cc21` (stereo not drawn) [Compound I-1182] was 5.00 to 6.00; that for `O=C1NC(c2cc(F)ccc2Cl)c2c(NC(=O)C34CC5CC(C3)CC(C(F)(F)F)(C5)C4)cc(Br)cc21` (stereo not drawn) [Compound I-1183] was at least 7.00; that for `O=C(Nc1cc(OC2CCOC2)cc2c1C(c1cc(F)ccc1Cl)NC2=O)c1cc(F)cc(C(F)(F)F)c1` (stereo not drawn) [Compound I-1184] was at least 7.00.
In the case of `O=C(Nc1cc(C#Cc2ccccn2)cc2c1C(c1cc(F)ccc1Cl)NC2=O)c1cc(F)cc(C(F)(F)F)c1` (stereo not drawn) [Compound I-1185], the pIC50 is at least 7.00.
The value for `CCCCC(C)(O)c1cc(NC(=O)c2cc(F)cc(C(F)(F)F)c2)c2c(c1)C(=O)NC2c1cc(F)ccc1Cl` (stereo not drawn) [Compound I-1186] was at least 7.00; that for `O=C(Nc1cc(C2CCOCC2)cc2c1C(c1cc(F)ccc1Cl)NC2=O)c1cc(F)cc(C(F)(F)F)c1` (stereo not drawn) [Compound I-1187] was at least 7.00; that for `CC(O)(c1cc(NC(=O)c2cc(F)cc(C(F)(F)F)c2)c2c(c1)C(=O)NC2c1cc(F)ccc1Cl)c1ccccn1` (stereo not drawn) [Compound I-1188] was at least 7.00.
On to `O=C(Nc1cc(N2CCOc3ccccc32)cc2c1C(c1cc(F)ccc1Cl)NC2=O)c1cc(F)cc(C(F)(F)F)c1` (stereo not drawn) [Compound I-1189], for which the pIC50 was at least 7.00.
Then `Cc1cnc2ccc(-c3cc(NC(=O)c4cc(F)cc(C(F)(F)F)c4)c4c(c3)C(=O)NC4c3cc(F)ccc3Cl)nn12` (stereo not drawn) [Compound I-1190], with at least 7.00; and `CC(C)(O)C#Cc1cc(NC(=O)c2cc(F)cc(C(F)(F)F)c2)c2c(c1)C(=O)NC2c1cc(F)ccc1Cl` (stereo not drawn) [Compound I-1191], with at least 7.00.
The value for `O=C(Nc1cc(C#CC2CC(F)(F)C2)cc2c1C(c1cc(F)ccc1Cl)NC2=O)c1cc(F)cc(C(F)(F)F)c1` (stereo not drawn) [Compound I-1194] was 6.30 to 7.00; that for `CS(=O)(=O)c1ccccc1-c1cc(NC(=O)c2cc(F)cc(C(F)(F)F)c2)c2c(c1)C(=O)NC2c1cc(F)ccc1Cl` (stereo not drawn) [Compound I-1195] was at least 7.00.
Then `O=C(Nc1cc(C2CS(=O)(=O)C2)cc2c1C(c1cc(F)ccc1Cl)NC2=O)c1cc(F)cc(C(F)(F)F)c1` (stereo not drawn) [Compound I-1196], with at least 7.00.
For `COc1ccccc1-c1cc(NC(=O)c2cc(F)cc(C(F)(F)F)c2)c2c(c1)C(=O)NC2c1cc(F)ccc1Cl` (stereo not drawn) [Compound I-1197], the pIC50 was 6.30 to 7.00.
The value for `O=C(Nc1cc(OC2CCC2(F)F)cc2c1C(c1cc(F)ccc1Cl)NC2=O)c1cc(F)cc(C(F)(F)F)c1` (stereo not drawn) [Compound I-1198] was at least 7.00; that for `Cn1ccnc1C(C)(O)c1cc(NC(=O)c2cc(F)cc(C(F)(F)F)c2)c2c(c1)C(=O)NC2c1cc(F)ccc1Cl` (stereo not drawn) [Compound I-1199] was at least 7.00; that for `O=C(Nc1cc(CC(O)C(F)(F)F)cc2c1C(c1cc(F)ccc1Cl)NC2=O)c1cc(F)cc(C(F)(F)F)c1` (stereo not drawn) [Compound I-1200] was at least 7.00.
Turning to `O=C(Nc1cc(-c2csc(C(=O)O)n2)cc2c1C(c1cc(F)ccc1Cl)NC2=O)c1cc(F)cc(C(F)(F)F)c1` (stereo not drawn) [Compound I-1201], the pIC50 was at least 7.00.
With `O=C(Nc1cc(Oc2ncccn2)cc2c1C(c1cc(F)ccc1Cl)NC2=O)c1cc(F)cc(C(F)(F)F)c1` (stereo not drawn) [Compound I-1202], the pIC50 was 6.30 to 7.00.
For `O=C1NC(c2cc(F)ccc2Cl)c2c(NC(=O)C34CC5CC(C3)C(F)(F)C(C5)C4)cc(Br)cc21` (stereo not drawn) [Compound I-1203], the pIC50 was 6.30 to 7.00.
Consider `O=C1NC(c2cc(F)ccc2Cl)c2c(NC(=O)C3(C(F)(F)F)CC3)cc(Br)cc21` (stereo not drawn) [Compound I-1204], for which the pIC50 was 4.00 to 5.00.
Molecule `N#CN1CC(Oc2cc(NC(=O)c3cc(F)cc(C(F)(F)F)c3)c3c(c2)C(=O)NC3c2cc(F)ccc2Cl)C1` (stereo not drawn) [Compound I-1205] gave a pIC50 of at least 7.00.
The value for `O=C(Nc1cc(Br)cc2c1C(c1cc(F)ccc1Cl)NC2=O)Oc1ccc2c(n1)NCC2` (stereo not drawn) [Compound I-1206] was 4.00 to 5.00; that for `Cn1c(Cl)cc(C(=O)Nc2cc(Br)cc3c2C(c2cc(F)ccc2Cl)NC3=O)cc1=O` (stereo not drawn) [Compound I-1209] was 4.00 to 5.00; that for `CC(O)(CC#N)c1cc(NC(=O)c2cc(F)cc(C(F)(F)F)c2)c2c(c1)C(=O)NC2c1cc(F)ccc1Cl` (stereo not drawn) [Compound I-1211] was at least 7.00.
Regarding `O=C1Nc2cccc(NC(=O)c3cc(F)cc(C(F)(F)F)c3)c2C(c2ccccc2Cl)N1` (stereo not drawn) [Compound I-1212], the negative logarithm of the IC50 (pIC50) is 5.00 to 6.00.

A word on the pIC50: it is the negative decadic logarithm of the IC50, by convention in mol/L.
